{"source": "ChEMBL document CHEMBL1123486", "about": "“Probes for narcotic receptor mediated phenomena. 9. Synthesis of (+/-)-(3 alpha,6a alpha,11a beta)-1,3,4,5,6,11a-hexahydro-2-methyl-2H-3,6a- methanobenzofuro[2,3-c]azocin-10-ol, an oxide-bridged 5-(m-hydroxyphenyl)morphan” (J Med Chem, 1986)"}
{"target": "Opioid receptor (Rattus norvegicus, UniProt P33533+P34975+P33535)", "test": "Binding affinity towards opioid receptor", "format": "protein assay", "units": {"IC50": "nM"}}
{"smiles": "CN1CC2Oc3cc(O)ccc3[C@@]23CCCC1C3", "note": "(stereo partly drawn)", "IC50": 1000}
{"smiles": "CN1CC[C@@]23CC1CC[C@@H]2Oc1c(O)cccc13", "IC50": 1766}
{"smiles": "CN1CC[C@]23CCCC1[C@H]2Oc1c(O)cccc13", "IC50": 96}
